Marks after values point to notes of the source that are not given here.
Columns and labels:
PV RdRp WT [1] = target: T1, PV RdRp WT (Poliovirus type 1, UniProt P03300); assay type: biochemical
T7 DdRp K631L = T7 DdRp K631L (Escherichia phage T7, UniProt P00573, K631L); assay type: biochemical
T7 DdRp WT = T7 DdRp WT (Escherichia phage T7, UniProt P00573); assay type: biochemical
PV RdRp WT [2] = target: T1, PV RdRp WT; conditions: cited from earlier work
PV RdRp WT [3] = target: T1, PV RdRp WT; assay type: biochemical; remark: listed apart in the source
[4] = read-out: Kd,app (apparent dissociation constant for nucleotide)

T7 DdRp K631L, sequence (P00573 whole entry K631L, looked up): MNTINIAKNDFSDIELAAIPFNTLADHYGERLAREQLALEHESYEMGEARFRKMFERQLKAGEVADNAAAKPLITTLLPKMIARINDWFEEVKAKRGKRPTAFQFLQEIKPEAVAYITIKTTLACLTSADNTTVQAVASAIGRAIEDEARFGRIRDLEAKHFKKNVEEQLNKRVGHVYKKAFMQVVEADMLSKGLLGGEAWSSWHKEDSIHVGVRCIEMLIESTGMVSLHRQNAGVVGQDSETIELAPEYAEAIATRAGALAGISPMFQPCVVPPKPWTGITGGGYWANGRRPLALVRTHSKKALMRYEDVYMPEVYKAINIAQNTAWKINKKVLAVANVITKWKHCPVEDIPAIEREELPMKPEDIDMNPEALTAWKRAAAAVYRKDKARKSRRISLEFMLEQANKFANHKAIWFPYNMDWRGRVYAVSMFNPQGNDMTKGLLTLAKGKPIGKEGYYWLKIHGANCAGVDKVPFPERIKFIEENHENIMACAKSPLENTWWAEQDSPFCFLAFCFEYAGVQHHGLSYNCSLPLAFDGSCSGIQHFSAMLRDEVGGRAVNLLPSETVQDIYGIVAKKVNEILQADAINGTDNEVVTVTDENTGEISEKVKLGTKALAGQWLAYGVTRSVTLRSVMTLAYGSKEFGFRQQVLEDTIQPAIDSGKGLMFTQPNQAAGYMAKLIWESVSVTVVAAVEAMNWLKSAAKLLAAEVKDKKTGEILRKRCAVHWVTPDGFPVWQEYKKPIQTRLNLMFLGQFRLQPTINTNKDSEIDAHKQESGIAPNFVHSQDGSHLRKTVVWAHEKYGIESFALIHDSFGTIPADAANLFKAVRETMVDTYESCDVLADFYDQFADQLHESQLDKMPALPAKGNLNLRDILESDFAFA
T1 sequence (P03300 1749-2209 limits assumed): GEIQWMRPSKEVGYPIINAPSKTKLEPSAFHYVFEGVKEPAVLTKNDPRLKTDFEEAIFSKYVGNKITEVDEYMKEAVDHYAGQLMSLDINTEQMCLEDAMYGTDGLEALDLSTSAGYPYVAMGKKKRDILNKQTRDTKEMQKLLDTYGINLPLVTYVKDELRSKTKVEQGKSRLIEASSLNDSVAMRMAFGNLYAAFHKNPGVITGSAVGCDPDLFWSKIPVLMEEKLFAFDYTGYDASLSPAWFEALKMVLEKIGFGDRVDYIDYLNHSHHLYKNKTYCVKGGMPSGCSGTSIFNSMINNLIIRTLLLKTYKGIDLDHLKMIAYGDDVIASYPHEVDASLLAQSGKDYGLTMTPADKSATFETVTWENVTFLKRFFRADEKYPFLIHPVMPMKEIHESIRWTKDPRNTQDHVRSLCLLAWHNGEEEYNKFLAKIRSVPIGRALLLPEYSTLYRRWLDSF
T7 DdRp WT, sequence (P00573 whole entry, looked up): as the sequence (P00573 whole entry K631L, looked up) above, with L631K counted along it

## Nc1ncnc2c1ncn2[C@@H]1O[C@H](COP(=O)(O)OP(=O)(O)OP(=O)(O)O)[C@@H](O)[C@H]1O [ATP]
PV RdRp WT [1]
  PI (proton inventory: proton-transfer model that best fits): 2
  SDKIE (solvent deuterium kinetic isotope effect): 3.0 ± 0.3
  kpol (maximal rate constant for nucleotide incorporation): 50 ± 5 s⁻¹
PV RdRp WT [1]; [4]
  Kd: 200 ± 20 µM
T7 DdRp K631L
  SDKIE (solvent deuterium kinetic isotope effect): 2.6 ± 0.5 ^c
  kpol (maximal rate constant for nucleotide incorporation): 0.6 ± 0.1 s⁻¹
  reduction in kpol relative to wt: 100 fold
T7 DdRp K631L; [4]
  Kd: 50000 µM
T7 DdRp WT
  PI (proton inventory: proton-transfer model that best fits): 2
  SDKIE (solvent deuterium kinetic isotope effect): 5.2 ± 0.5
T7 DdRp WT; pH 7.5
  kpol (maximal rate constant for nucleotide incorporation): 60 ± 5 s⁻¹
T7 DdRp WT; read-out: Kd,app (apparent dissociation constant for nucleotide), pH 7.5
  Kd: 300 ± 30 µM
PV RdRp WT [2]
  pKa from pH rate profile of kpol, second ionizable group: 10.5
PV RdRp WT [3]
  SDKIE: 7 ± 1

— article PMC2728625 (Nature structural & molecular biology, 2009)
